Measurements published in ChEMBL document CHEMBL1201862, “PubChem BioAssay data set” (2004).
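Five concentrations, 48 hours, 96-well plates. GI50 is the concentration that inhibits growth by half.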 The source made the active and inactive calls. Rule as the data show it: active = GI50 up to about 1.1 µM and inactive = higher. Where a SMILES comes first, the peptide text is derived from it. [ ]: non-standard residue; d: D form. The star is where a group is joined. ξ: configuration not given here. ξF = NC(Cc1ccccc1)C(=O)O; Cbz = O=C(OCc1ccccc1)*; Aib = CC(C)(N)C(=O)O; NHNH2 = NN*

Columns and labels:
Assay in all cases: growth of human tumour cells (NCI), 48 h
RXF 393 = test system: RXF 393
NCI-H226 = test system: NCI-H226
BT-549 = test system: BT-549
ACHN = test system: ACHN
NCI-H23 = test system: NCI-H23
NCI-H460 = test system: NCI-H460
SK-MEL-2 = test system: SK-MEL-2
786-0 = test system: 786-0
SF-268 = test system: SF-268
TK-10 = test system: TK-10
HOP-62 = test system: HOP-62
MCF7 = test system: MCF7
U-251 = test system: U-251
T47D = test system: T47D
M14 = test system: M14
OVCAR-4 = test system: OVCAR-4
SF-295 = test system: SF-295
OVCAR-3 = test system: OVCAR-3
DU-145 = test system: DU-145
SK-OV-3 = test system: SK-OV-3
UO-31 = test system: UO-31
SW-620 = test system: SW-620
K562 = test system: K562
SNB-75 = test system: SNB-75
SK-MEL-5 = test system: SK-MEL-5
EKVX = test system: EKVX
RPMI-8226 = test system: RPMI-8226
MDA-MB-435 = test system: MDA-MB-435
NCI-H522 = test system: NCI-H522
PC-3 = test system: PC-3
LOX IMVI = test system: LOX IMVI
COLO 205 = test system: COLO 205
HOP-92 = test system: HOP-92
SN12C = test system: SN12C
UACC-62 = test system: UACC-62
OVCAR-5 = test system: OVCAR-5
CAKI-1 = test system: CAKI-1
SNB-19 = test system: SNB-19
MOLT-4 = test system: MOLT-4
HT-29 = test system: HT-29
OVCAR-8 = test system: OVCAR-8
HCT-15 = test system: HCT-15
UACC-257 = test system: UACC-257
MDA-N = test system: MDA-N
IGROV-1 = test system: IGROV-1
NCI/ADR-RES = test system: NCI/ADR-RES
CCRF-CEM = test system: CCRF-CEM
A498 = test system: A498
KM12 = test system: KM12
Hs-578T = test system: Hs-578T
Malme-3M = test system: Malme-3M
SF-539 = test system: SF-539
MDA-MB-231 = test system: MDA-MB-231
A549 = test system: A549
SK-MEL-28 = test system: SK-MEL-28
HCT-116 = test system: HCT-116
HL-60 = test system: HL-60
HCC 2998 = test system: HCC 2998
SR = test system: SR

Measured: GI50

CC(C)(NC(=O)OCc1ccccc1)C(=O)NC(Cc1ccccc1)C(=O)NN (configuration not stated) (Cbz-[Aib]-[ξF]-NHNH2)
> 100 µM: HCT-15
inactive: RXF 393 > 100 µM | NCI-H226 > 100 µM | BT-549 > 100 µM | ACHN > 100 µM | NCI-H23 > 100 µM | NCI-H460 > 100 µM | SK-MEL-2 > 100 µM | 786-0 > 100 µM | SF-268 > 100 µM | TK-10 > 100 µM | HOP-62 > 100 µM | MCF7 > 100 µM | U-251 > 100 µM | T47D > 100 µM | M14 > 100 µM | OVCAR-4 > 100 µM | SF-295 > 100 µM | OVCAR-3 > 100 µM | DU-145 > 100 µM | SK-OV-3 > 100 µM | UO-31 > 100 µM | SW-620 > 100 µM | K562 > 100 µM | SNB-75 > 100 µM | SK-MEL-5 > 100 µM | EKVX > 100 µM | RPMI-8226 > 100 µM | MDA-MB-435 > 100 µM | NCI-H522 > 100 µM | PC-3 > 100 µM | LOX IMVI > 100 µM | COLO 205 > 100 µM | HOP-92 > 100 µM | SN12C > 100 µM | UACC-62 > 100 µM | OVCAR-5 > 100 µM | CAKI-1 > 100 µM | SNB-19 > 100 µM | MOLT-4 > 100 µM | HT-29 > 100 µM | OVCAR-8 > 100 µM | UACC-257 > 100 µM | MDA-N 42.1 µM | IGROV-1 > 100 µM | NCI/ADR-RES > 100 µM | CCRF-CEM > 100 µM | A498 > 100 µM | KM12 > 100 µM | Hs-578T > 100 µM | Malme-3M > 100 µM | SF-539 > 100 µM | MDA-MB-231 > 100 µM | A549 > 100 µM | SK-MEL-28 > 100 µM

C=C(C(=O)O)C1CCC(CC/C=C(\C)CC/C=C(\C)CCC=C(C)C)CO1 (configuration not stated)
13 µM: HCT-15
inactive: RXF 393 12.4 µM | BT-549 18 µM | ACHN 28.6 µM | NCI-H23 18.5 µM | SK-MEL-2 17.3 µM | 786-0 11 µM | SF-268 28.2 µM | TK-10 23 µM | HOP-62 23.1 µM | MCF7 5.97 µM | U-251 20.1 µM | T47D 26.2 µM | M14 11.1 µM | OVCAR-4 27.4 µM | SF-295 18.2 µM | DU-145 17.5 µM | SK-OV-3 82.2 µM | UO-31 12.5 µM | SW-620 15.7 µM | SNB-75 > 100 µM | SK-MEL-5 12.5 µM | EKVX 13.3 µM | MDA-MB-435 18 µM | NCI-H522 20.7 µM | HCT-116 4.99 µM | PC-3 24.8 µM | LOX IMVI 12.2 µM | COLO 205 11.2 µM | SN12C 14.2 µM | UACC-62 40 µM | OVCAR-5 18 µM | CAKI-1 32.3 µM | SNB-19 13.6 µM | HT-29 11.7 µM | OVCAR-8 18.8 µM | UACC-257 15.3 µM | MDA-N 11 µM | IGROV-1 18.5 µM | NCI/ADR-RES 27.1 µM | CCRF-CEM 22.6 µM | A498 19.4 µM | KM12 14.8 µM | HL-60 4.01 µM | Hs-578T 12 µM | Malme-3M 21.5 µM | SF-539 12.1 µM | MDA-MB-231 42.7 µM | A549 7.89 µM | SK-MEL-28 14.3 µM
active: NCI-H226 0.0723 µM

O=C(C#Cc1ccccc1)N1CCCCC1
49.9 µM: HCT-15
inactive: NCI-H226 > 100 µM | BT-549 > 100 µM | ACHN 58.1 µM | NCI-H23 45.3 µM | NCI-H460 44.6 µM | SK-MEL-2 > 100 µM | 786-0 14.4 µM | SF-268 90.2 µM | TK-10 > 100 µM | HOP-62 > 100 µM | MCF7 44.4 µM | U-251 84.1 µM | T47D 52.6 µM | M14 84.1 µM | OVCAR-4 80 µM | SF-295 > 100 µM | OVCAR-3 81.7 µM | DU-145 55.8 µM | SK-OV-3 > 100 µM | SW-620 97.9 µM | K562 73.6 µM | SNB-75 > 100 µM | SK-MEL-5 56.4 µM | EKVX 63.2 µM | RPMI-8226 62.5 µM | MDA-MB-435 63.5 µM | NCI-H522 > 100 µM | HCT-116 16.8 µM | PC-3 77.4 µM | LOX IMVI 48.9 µM | COLO 205 > 100 µM | HOP-92 > 100 µM | SN12C > 100 µM | UACC-62 > 100 µM | OVCAR-5 > 100 µM | CAKI-1 83.9 µM | SNB-19 > 100 µM | HCC 2998 84.7 µM | MOLT-4 > 100 µM | HT-29 29 µM | OVCAR-8 48.6 µM | UACC-257 > 100 µM | MDA-N 86.5 µM | IGROV-1 65 µM | CCRF-CEM 50.8 µM | A498 > 100 µM | KM12 > 100 µM | SR 80.4 µM | HL-60 21.9 µM | Hs-578T > 100 µM | Malme-3M 40 µM | SF-539 > 100 µM | MDA-MB-231 72.3 µM | A549 76.9 µM | SK-MEL-28 > 100 µM
